Usually Kd stands for the concentration at which binding is half-saturated. Low readings indicate a tighter complex, high ones a looser complex.

Four molecules from PMC7180948, “New Insights into 4-Anilinoquinazolines as Inhibitors of Cardiac Troponin I–Interacting Kinase (TNNi3K)” (Molecules, 2020) can be followed below.

For the assay, the target named is T1, cardiac troponin I–interacting kinase (TNNi3K) (Homo sapiens, UniProt Q59H18).
T1 sequence (Q59H18 1-835): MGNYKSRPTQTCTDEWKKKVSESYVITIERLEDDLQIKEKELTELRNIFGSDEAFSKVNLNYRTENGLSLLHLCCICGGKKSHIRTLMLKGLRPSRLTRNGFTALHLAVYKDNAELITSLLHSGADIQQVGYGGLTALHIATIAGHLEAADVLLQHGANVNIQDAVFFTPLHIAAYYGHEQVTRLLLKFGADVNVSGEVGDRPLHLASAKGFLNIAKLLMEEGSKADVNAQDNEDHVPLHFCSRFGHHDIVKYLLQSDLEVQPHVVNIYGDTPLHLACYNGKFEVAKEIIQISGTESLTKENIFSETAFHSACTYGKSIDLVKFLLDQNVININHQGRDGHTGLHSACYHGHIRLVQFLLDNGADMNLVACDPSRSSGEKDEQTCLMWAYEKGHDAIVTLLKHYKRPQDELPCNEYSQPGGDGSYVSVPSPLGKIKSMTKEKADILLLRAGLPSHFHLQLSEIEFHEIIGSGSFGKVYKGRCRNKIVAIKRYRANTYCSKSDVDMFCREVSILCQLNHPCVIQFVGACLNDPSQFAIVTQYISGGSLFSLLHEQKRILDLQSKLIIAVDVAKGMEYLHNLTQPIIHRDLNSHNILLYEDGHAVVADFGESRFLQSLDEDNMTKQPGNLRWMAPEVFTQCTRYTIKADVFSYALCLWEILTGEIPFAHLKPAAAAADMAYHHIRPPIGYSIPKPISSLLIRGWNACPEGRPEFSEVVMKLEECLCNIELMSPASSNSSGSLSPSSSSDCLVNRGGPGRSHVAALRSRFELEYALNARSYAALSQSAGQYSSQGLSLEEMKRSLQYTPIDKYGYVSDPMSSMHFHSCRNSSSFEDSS
Nature of the assay: TNNi3K binding assay (Kd, n = […]).
`CNS(=O)(=O)c1cccc(Nc2ncnc3cc(OC)c(OC)cc23)c1` [compound 2, 3-((6,7-dimethoxyquinazolin-4-yl)amino)-N-methylbenzenesulfonamide] came in with a Kd of 120 nM.

Molecule `CNS(=O)(=O)c1ccc(N(C)C)c(Nc2ncnc3ccc(OC)cc23)c1` [compound 16, 4-(dimethylamino)-3-((6-methoxyquinazolin-4-yl)amino)-N-methylbenzenesulfonamide] displayed an equilibrium dissociation constant (Kd) of 90 nM. The molecule `CNS(=O)(=O)c1ccc(N(C)C)c(Nc2ncnc3cc(OC)ccc23)c1` [compound 17, 4-(dimethylamino)-3-((7-methoxyquinazolin-4-yl)amino)-N-methylbenzenesulfonamide] came in with a Kd of 11 nM.

In the case of `COc1cc2ncnc(Nc3ccccc3N(C)C)c2cc1OC` [compound 20, N^1-(6,7-dimethoxyquinazolin-4-yl)-N^2,N^2-dimethylbenzene-1,2-diamine], binding was characterised by a dissociation constant (Kd) of 6200 nM.
